Target: T1, purified human placenta 20S proteasome (Homo sapiens, UniProt P28074)
T1 construct: purified human placenta 20S proteasome; tissue Diabetes Forschungsinstitut, Düsseldorf, Germany; host or cells: human placenta
Test: Inhibition of the chymotrypsin-like activity of the 20S proteasome (Suc-LLVY-AMC hydrolysis, fluorescence)
Format: biochemical
Conditions: substrate Suc-LLVY-AMC 80 μM, 60 min preincubation at room temperature, incubation 3-24 h at 37° C.
Procedure: It is based on the hydrolysis of the fluorogenic peptide Suc-LLVY-AMC (Succinyl-leucine-leucine-valine-tyrosine-7-amino-4-methylcoumarin), which is cleaved exclusively at the Y-AMC bond by the 20S proteasome. Hydrolysis of this peptide is accompanied by an increase in fluorescence intensity (λex355 nm, λem460 nm) due to release of the […] that accompanies diffusion apart of the hydrolysis product Suc-LLVY.
2 μl of a 1 mM solution of a test compound in DMSO (dimethylsulfoxide, 20 μM final concentration in the well) are preincubated for 60 min at room temperature in black 96-well microtiter plates together with a mixture of 1 μl purified human placenta 20S proteasome (Diabetes Forschungsinstitut, Düsseldorf, Germany; about 100 ng proteasome, depending on the proteasome preparation) and 47 μl buffer-Ca (5 mM CaCl2, 20 mM Trs/HCl (Tris(hydroxymethyl)-amino-methane hydrochloride) pH 8.0). 3 pd of a 2.67 mM solution of Suc-LLVY-AMC (Bachem, Switzerland) in DMSO (80 μM final concentration in the well) and 47 μl buffer-Ca are mixed and added. The resulting mixture is incubated for 3-24 h at 37° C. If desired, proteolysis of the substrate can be stopped by addition of 50 μl stop solution (100 mM monochloroacetic acid, 130 mM NaOH, 100 mM acetic acid, pH=4.3). The fluorescence is monitored with a FLUOROSKAN ASCENT™ microtiter plate reader.
To each measure series two control experiments have to be carried out • 1.) 0% value: 2 μl DMSO are used in the above described assay instead of 2 μl of a 1 mM solution of a test compound in DMSO and 48 μl buffer-Ca instead of a mixture of 47 μl buffer-Ca and 1 μl purified proteasome. • 2.) 100% value: in the above described assay 2 μl DMSO are used instead of 2 μl of a 1 mM solution of the test compound in DMSO. Calculation [formula]
The IC50 value is defined as that concentration of a compound at which the remaining activity is 50%.

Row | SMILES | IC50 [nM]
1 | COc1ccc(CN[C@@H](C(=O)N[C@H](C(=O)NCc2ccc(OC)cc2O)C(C)C)[C@@H](O)[C@H](Cc2ccccc2)NC(=O)[C@@H](NC(=O)OCc2ccccc2)C(C)(C)C)cc1 [Example 1] | 900
2 | COC(=O)CCC(NC(=O)C(NCc1ccc(OC)cc1)C(O)C(Cc1ccccc1)NC(=O)C(NC(=O)OCc1ccccc1)C(C)C)C(=O)NCc1ccc(OC)cc1O (centres unmarked) [Example 2, 4-[4-(2-Benzyloxycarbonylamino-3-methyl-butyrylamino)-3-hydroxy-2-(4-methoxy-benzylamino)-5-phenyl-pentanoylamino]-4-(2-hydroxy-4-methoxy-benzyl-carbomoyl)-butyric acid methyl ester] | 400
3 | COc1ccc(CNC(C(=O)NC(C(=O)NCc2ccc(OC)cc2O)C(C)C)C(O)C(Cc2ccccc2)NC(=O)C(NC(=O)OC(C)(C)C)C(C)(C)C)cc1 (centres unmarked) [Example 3, {1-[1-Benzyl-2-hydroxy-3-[1-(2-hydroxy-4-methoxy-benzylcarbamoyl)-2-methyl-propylcarbamoyl]-3-(4-methoxy-benzylamino)-propylcarbamoyl]-2,2-dimethyl-propyl}-carbamic acid tert-butyl ester] | 26000
4 | COc1ccc(CNC(C(=O)NC(C(=O)NCc2ccc(OC)cc2O)C(C)C)C(O)C(Cc2ccccc2)NC(=O)C(NC(=O)OCc2cccc3ccccc23)C(C)(C)C)cc1 (centres unmarked) [Example 4, {1-[1-Benzyl-2-hydroxy-3-[1-(2-hydroxy-4-methoxy-benzyl-carbamoyl)-2-methyl-propylcarbamoyl]-3-(4-methoxy-benzylamino)-propylcarbamoyl]-2,2-dimethyl-propyl}-carbamic acid naphthalen-1-ylmethyl ester] | 2000
5 | COc1ccc(CNC(C(=O)NC(C(=O)NCc2ccc(OC)cc2O)C(C)C)C(O)C(Cc2ccccc2)NC(=O)C(NC(=O)OCc2ccc3ccccc3c2)C(C)(C)C)cc1 (centres unmarked) [Example 5, {1-[1-Benzyl-2-hydroxy-3-[1-(2-hydroxy-4-methoxy-benzylcarbamoyl)-2-methyl-propylcarbamoyl]-3-(4-methoxy-benzylamino)-propylcarbamoyl]-2,2-dimethyl-propyl}-carbamic acid naphthalen-2-ylmethyl ester] | 5200
6 | COc1ccc(CNC(C(=O)NC(C(=O)NCc2ccc(OC)cc2O)C(C)C)C(O)C(Cc2ccccc2)NC(=O)C(NC(=O)OCc2ccncc2)C(C)(C)C)cc1 (centres unmarked) [Example 6, {1-[1-Benzyl-2-hydroxy-3-[1-(2-hydroxy-4-methoxy-benzylcarbamoyl)-2-methyl-propylcarbamoyl]-3-(4-methoxy-benzylamino)-propylcarbamoyl]-2,2-dimethyl-propyl}-carbamic acid pyridin-4-ylmethyl ester] | 2200
7 | COc1ccc(CNC(C(=O)NC(C(=O)NCc2ccc(OC)cc2O)C(C)C)C(O)C(Cc2ccccc2)NC(=O)CNC(=O)OCc2ccccc2)cc1 (centres unmarked) [Example 7, {[1-Benzyl-2-hydroxy-3-[1-(2-hydroxy-4-methoxy-benzylcarbamoyl)-2-methyl-propylcarbamoyl]-3-(4-methoxy-benzylamino)-propylcarbamoyl]-methyl}-carbamic acid benzyl ester] | 9000
8 | COc1ccc(CNC(C(=O)NC(C(=O)NCc2ccc(OC)cc2O)C(C)C)C(O)C(Cc2ccccc2)NC(=O)C(NC(=O)OCc2ccccc2)C(C)C)cc1 (centres unmarked) [Example 8, {1-[1-Benzyl-2-hydroxy-3-[1-(2-hydroxy-4-methoxy-benzylcarbamoyl)-2-methyl-propylcarbamoyl]-3-(4-methoxy-benzylamino)-propylcarbamoyl]-2-methyl-propyl}-carbamic acid benzyl ester] | 3300
9 | COc1ccc(CNC(C(=O)NC(C(=O)NCc2ccc(OC)cc2O)C(C)C)C(O)C(Cc2ccccc2)NC(=O)C(NC(=O)Cc2cccc3ccccc23)C(C)(C)C)cc1 (centres unmarked) [Example 10, 4-[3,3-Dimethyl-2-(2-naphthalen-1-yl-acetylamino)-butyrylamino]-3-hydroxy-2-(4-methoxy-benzylamino)-5-phenyl-pentanoic acid [1-(2-hydroxy-4-methoxy-benzyl-carbamoyl)-2-methyl-propyl]-amide] | 100
10 | COc1ccc(CNC(C(=O)NC(C(=O)NCc2ccc(OC)cc2O)C(C)C)C(O)C(Cc2ccccc2)NC(=O)C(NC(=O)OCc2cccc(C)c2)C(C)(C)C)cc1 (centres unmarked) [Example 11, {1-[1-Benzyl-2-hydroxy-3-[1-(2-hydroxy-4-methoxy-benzylcarbamoyl)-2-methyl-propylcarbamoyl]-3-(4-methoxy-benzylamino)-propylcarbamoyl]-2,2-dimethyl-propyl}-carbamic acid 3-methylbenzyl ester] | 500
11 | COc1ccc(CNC(C(=O)NC(C(=O)NCc2ccc(OC)cc2O)C(C)C)C(O)C(Cc2ccccc2)NC(=O)C(NC(=O)CCc2cccc(N)c2)C(C)(C)C)cc1 (centres unmarked) [Example 12, 4-{2-[3-(3-Amino-phenyl)-propionylamino]-3,3-dimethyl-butyrylamino}-3-hydroxy-2-(4-methoxy-benzylamino)-5-phenyl-pentanoic acid [1-(2-hydroxy-4-methoxy-benzylcarbamoyl)-2-methyl-propyl]-amide] | 600
12 | COc1ccc(CNC(C(=O)NC(C(=O)NCc2ccc(OC)cc2O)C(C)C)C(O)C(Cc2ccccc2)NC(=O)C(NC(=O)OCc2cccc(N)c2)C(C)(C)C)cc1 (centres unmarked) [Example 13, {1-[1-Benzyl-2-hydroxy-3-[1-(2-hydroxy-4-methoxy-benzylcarbamoyl)-2-meth-propylcarbamoyl]-3-(4-methoxy-benzylamino)-propylcarbamoyl]-2,2-dimethyl-propyl}-carbamic acid 3-amino-benzyl ester] | 600
13 | COc1ccc(CNC(C(=O)NC(C(=O)NCc2ccc(OC)cc2O)C(C)C)C(O)C(Cc2ccccc2)NC(=O)C(NC(=O)OCc2cc(C)cc(C)c2)C(C)(C)C)cc1 (centres unmarked) [Example 14, {1-[1-Benzyl-2-hydroxy-3-[1-(2-hydroxy-4-methoxy-benzyl-carbamoyl)-2-methyl-propylcarbamoyl]-3-(4-methoxy-benzylamino)-propylcarbamoyl]-2,2-dimethyl-propyl}-carbamic acid 3,5-dimethyl-benzyl ester] | 1100
14 | COc1ccc(CN[C@@H](C(=O)N[C@H](C(=O)NCc2ccc(OC)cc2O)C(C)C)[C@@H](O)[C@H](Cc2ccccc2)NC(=O)[C@@H](NC(=O)OCC2CCCCC2)C(C)(C)C)cc1 [Example 15, {(S)-1-[(1S,2S,3R)-1-Benzyl-2-hydroxy-3-[(S)-1-(2-hydroxy-4-methoxy-benzylcarbamoyl)-2-methyl-propylcarbamoyl]-3-(4-methoxy-benzylamino)-propylcarbamoyl]-2,2-dimethyl-propyl}-carbamic acid cyclohexylmethyl ester] | 1000

Source: patent US20050026994A1, “Use of 2, 4diamino-3-hydroxycarboxylic acid derivatives as proteasome inhibitors” (priority 2000, published 2005)
